Test results taken from PubChem BioAssay (NCI).
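All cell lines were grown in 96-well plates and treated with compound for 48 hours. GI50: concentration for 50% inhibition of growth. TGI: total growth inhibition.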

What was measured:
Experiment in all cases: DTP human tumour cell line panel, 48 h
SF-295 CNS = system: SF-295 CNS
HOP-92 NSCLC = system: HOP-92 NSCLC
IGROV1 ovarian = system: IGROV1 ovarian
SF-539 CNS = system: SF-539 CNS
SR leukemia = system: SR leukemia
HCC-2998 colon = system: HCC-2998 colon
HCT-15 colon = system: HCT-15 colon
BT-549 breast = system: BT-549 breast
PC-3 prostate = system: PC-3 prostate
MDA-MB-231 breast = system: MDA-MB-231 breast

Compound	TGI (SF-295 CNS)	TGI (HOP-92 NSCLC)	TGI (IGROV1 ovarian)	TGI (SF-539 CNS)	TGI (SR leukemia)	TGI (HCC-2998 colon)	TGI (HCT-15 colon)	TGI (BT-549 breast)	TGI (PC-3 prostate)	TGI (MDA-MB-231 breast)	GI50 (HOP-92 NSCLC)	GI50 (SR leukemia)
Cn1cnc([N+](=O)[O-])c1Sc1nnc(-c2ccc(Cl)cc2)n1C	> 100 µM	25.8 µM	32.7 µM	37.4 µM	33.7 µM	32.3 µM						
COC(=O)C12CCC(CC1=O)C2(C)C (configuration not stated)	> 100 µM	> 100 µM	> 100 µM	> 100 µM	> 100 µM	> 100 µM	> 100 µM					
O=C(C#Cc1ccccc1)Nc1ccccc1CC(c1c[nH]c2ccccc12)c1c[nH]c2ccccc12	80 µM		98.8 µM	30.1 µM		50.6 µM						
OC[C@H](O)[C@@H](OCc1ccccc1)[C@H](NCc1ccccc1)c1cccs1	> 100 µM	> 100 µM	> 100 µM	> 100 µM	> 100 µM		> 100 µM	> 100 µM	> 100 µM	> 100 µM		
CCOC(=O)C(NS(=O)(=O)c1ccccc1)(C(F)(F)F)P(=O)(OCC(C)C)OCC(C)C (configuration not stated)	> 100 µM	> 100 µM	> 100 µM	> 100 µM	> 100 µM	> 100 µM	> 100 µM		> 100 µM	> 100 µM		
O=C(NNC(=O)c1ccccc1O)c1cccs1	> 100 µM		> 100 µM	> 100 µM	> 100 µM		> 100 µM	> 100 µM	> 100 µM	> 100 µM		
CCCN1CCN(c2ccc3nc(-c4ccc5nc(-c6ccc(OCC)cc6)[nH]c5c4)[nH]c3c2)CC1		28.4 µM			2.58 µM						5.05 µM	0.404 µM
COc1cc2ccnc3c2c(c1OC)N(C)C=C3	78.3 µM				64.9 µM	33.8 µM	> 100 µM	87.8 µM	> 100 µM	80.6 µM		
O=C1C2Cc3ccccc3CN2C(=O)N1CN1CCCCC1 (configuration not stated)	> 100 µM		> 100 µM	> 100 µM	> 100 µM	> 100 µM	> 100 µM					
CCOC(=O)C1=C(C)NC(c2ccccc2)=C(C(=O)OCc2ccccc2)C1C#Cc1ccccc1 (configuration not stated)	> 100 µM		> 100 µM	> 100 µM	> 100 µM		> 100 µM	> 100 µM	> 100 µM			
Cc1ccc2c(=O)cc(-c3ccccc3)[nH]c2n1		> 55.2 µM	> 100 µM	2.79 µM		4.68 µM	6.3 µM	> 100 µM	26.7 µM	22.8 µM		
CC(=O)[C@H]1CC[C@@H]2[C@]1(C)CC=C1[C@]23C=C[C@]2(C[C@@H](O)CC[C@]12C)C(C(=O)O)C3C(=O)O (some centres not stated)	> 100 µM	> 100 µM	> 100 µM	> 100 µM		> 100 µM	> 100 µM	> 100 µM	> 100 µM	> 100 µM		
Nc1nc(Cl)cc(OCC2(CO)CCCCC2)n1	> 100 µM	> 100 µM	> 100 µM	> 100 µM	> 100 µM	82.1 µM	> 100 µM		> 100 µM			
Cn1c(=Nc2ccccc2[N+](=O)[O-])sc2ccccc21	> 100 µM	61.7 µM	> 100 µM	> 100 µM	> 100 µM	> 100 µM	> 100 µM		> 100 µM	> 100 µM		
C#CCn1c(=O)c2cc(OC)c(OC)cc2n(CC#C)c1=O	> 10 µM	> 10 µM	> 10 µM	> 10 µM		> 10 µM	> 10 µM		> 10 µM	> 10 µM		
Nc1ccc(Oc2ccc(C34CC5CC(C3)CC(c3ccc(Oc6ccc(N)c(O)c6)cc3)(C5)C4)cc2)cc1O	5.1 µM	4.48 µM	3.04 µM	4.57 µM	> 100 µM		4.37 µM	3.37 µM	5.69 µM	3 µM		
COC(=O)C1=C(C(=O)OC)SC2(S1)C(C(=O)OC)=C(C(=O)OC)Sc1c2ssc1=O	27.6 µM	2.3 µM	3.63 µM	3.35 µM		2.72 µM	1.57 µM	2.89 µM	3.75 µM	3.55 µM		
CN(CCCNC(=O)c1[nH]nc2c1ccc1ccccc12)CCCNC(=O)c1[nH]nc2c1ccc1ccccc12	32.5 µM	28.3 µM	30.9 µM	24 µM		4.13 µM	31.2 µM	29.4 µM	27.9 µM	23.4 µM		
CN(C)CCNC(=O)c1cccc2c(NC(CCCN=C(N)N)C(=O)O)c3ccccc3nc12 (configuration not stated)	41.9 µM	51.1 µM	64.7 µM		> 100 µM		> 100 µM		> 100 µM	> 100 µM		
O=[N+]([O-])c1cc(-c2ccc([As](=O)(O)O)cc2)ccc1[As](=O)(O)O	> 100 µM	> 100 µM	> 100 µM		> 100 µM		> 100 µM	> 100 µM	> 100 µM	> 100 µM		
Cc1[nH]c(-c2ccccc2)c(O)c1C(=O)OC1CC(C)CCC1C(C)C (configuration not stated)	24.8 µM	32.7 µM	29 µM	29.7 µM	34.7 µM		32.1 µM	33 µM	26.7 µM	29 µM		
O=S1(=O)OCCOS(=O)(=O)C1C1c2ccccc2-c2ccccc21	> 100 µM	> 100 µM	> 100 µM	> 100 µM		> 100 µM	> 100 µM	> 100 µM	> 100 µM	> 100 µM		
O=C(NC1CCCCC1)N1CCNC1=S	> 100 µM	> 100 µM	> 100 µM	> 100 µM	> 100 µM	> 100 µM	> 100 µM	> 100 µM		8.05 µM		
CNC(=O)/C(C#N)=C(\N)N1CCCC1			> 100 µM	> 100 µM	> 100 µM	> 100 µM	> 100 µM		> 100 µM	> 100 µM		
Cc1nc2cc3[nH]c4ccccc4c(=O)c3cc2s1	> 100 µM	> 100 µM	> 100 µM	> 100 µM	> 100 µM	> 100 µM	> 100 µM					
